Values quoted from earlier work in publication doi:10.1101/2023.04.08.536135v1 (bioRxiv, 2023).

Tested on: IDE

Substance: bradykinin (RPPGFSPFR; Bradykinin; UniProt P01042 381-389, looked up)
- rate of degradation by IDE relative to that of insulin: at least 20 fold
